The text below walks through data of patent US5362739A (priority 1990, dated 1994).

Experiment [1] has as its target muscarinic receptors. As to the kind of experiment: Radio ligand binding: displacement of the muscarinic agonist 3H-Oxotremorine-M (3H-OXO-M). Details: species or system rat (Hooded Lister). The following applies: 2 nM 3H-OXO-M, rat cerebral cortex membranes, 2 mM magnesium chloride, 37° C., 30 min.
The target in experiment [2] is muscarinic receptors. It is filed as binding, rat (Hooded Lister). The following applies: 0.27 nM 3H-QNB, rat cerebral cortex membranes, 37° C., 30 min.

SMILES strings stand for the structures. Structures can show the parent of a compound that is named as a salt. Where two headings read alike, the source gives them in different places.

A word on the IC50: it is the concentration needed to halve the response being measured. Lower therefore signals greater potency in that assay. In the case of `CON=C(C#N)C1=CC2CCN(C1)C2` (racemic) [Compound E6, (±)-α-(Methoxyimino)-α-(1-azabicyclo[3.2.1]oct-3-en-3-yl)acetonitrile oxalate salt], the results for the IC50 at muscarinic receptors [1] and at muscarinic receptors [2] were 21 nM and 330 nM, respectively.

As for `CON=C(C)C1=CC2CCN(C1)C2` (racemic) [Compound E5, (±)trans 3-Acetyl-1-azabicyclo[3.2.1]oct-3-ene-O-methyloxime hydrochloride salt], the IC50 on muscarinic receptors [1] was determined as 175 nM; against muscarinic receptors [2] it was 1450 nM.

Turning to `CON=CC1=CC2CCN(C1)C2` (mixture of isomers) [Compound E4, (±) syn-1-Azabicyclo[3.2.1]oct-3-en-3-ylcarboxaldehyde-O-methyloxime hydrochloride salt], the IC50 at muscarinic receptors [1] amounted to 70 nM; at muscarinic receptors [2] it was 1250 nM.

For the compound `CON=C(Cl)C1=CC2CCN(C1)C2` (racemic) [Compound E2, (±) 1-Azabicyclo[3.2.1]oct-3-en-3-yl-N-methoxycarboximidoyl chloride oxalate salt], the IC50 at muscarinic receptors [1] was determined as 100 nM; against muscarinic receptors [2], 1100 nM.

On to `CON=C(F)C1=CC2CCN(C1)C2` (racemic) [Compound E3, (±) 1-Azabicyclo[3.2.1]oct-3-en-3-yl-N-methoxcarboximidoyl fluoride oxalate salt], for which the IC50 on muscarinic receptors [1] came out at 26 nM; against muscarinic receptors [2], 320 nM.
